The record followed here is ChEMBL document CHEMBL4229333, “Effects of rigidity on the selectivity of protein kinase inhibitors” (Eur J Med Chem, 2018).

pIC50: −log10 of the molar value. Active and inactive are the calls of the source. No cut-off for these calls is given here.

Test [1] deals with Ephrin type-B receptor 3 (Homo sapiens) (UniProt P54753). As to the kind of experiment: Inhibition of EPH-B3 (unknown origin) at 1 uM by mobility shift microfluidics platform based assay relative to control.
Test [2] has as its target Bcr/Abl fusion protein (Homo sapiens, UniProt P00519). As to the kind of experiment: Inhibition of BCR-ABL (unknown origin) expressed in mouse BA/F3 cells assessed as reduction in ABL phosphorylation at Y412 residue incubated for 3 hrs by immunoblotting assay. Type of test: cell-based. For orientation: A western blot detects proteins with antibodies after separation by electrophoresis.

In test [3] the target is Dual specificity protein kinase TTK (Homo sapiens) (UniProt P33981). Briefly: Inhibition of TTK (unknown origin) at 1 uM by mobility shift microfluidics platform based assay relative to control.
For test [4], the target named is BDNF/NT-3 growth factors receptor (Homo sapiens) (UniProt Q16620). Briefly: Inhibition of TRKB (unknown origin) at 1 uM by mobility shift microfluidics platform based assay relative to control.
Test [5] concerns the target Serine/threonine-protein kinase Nek9 (Homo sapiens) (UniProt Q8TD19). As to the kind of experiment: Inhibition of NEK9 (unknown origin) at 1 uM by mobility shift microfluidics platform based assay relative to control.
In test [6] the target is Tyrosine-protein kinase JAK1 (Homo sapiens) (UniProt P23458). Briefly: Inhibition of JAK1 (unknown origin) at 1 uM by mobility shift microfluidics platform based assay relative to control.
In test [7] the target is Protein kinase C iota type (Homo sapiens) (UniProt P41743). As to the kind of experiment: Inhibition of PKC-iota (unknown origin) at 1 uM by mobility shift microfluidics platform based assay relative to control.
The target of test [8] is Cyclin-dependent kinase 5 (Homo sapiens) (UniProt Q00535). As to the kind of experiment: Inhibition of CDK5 (unknown origin) at 1 uM by mobility shift microfluidics platform based assay relative to control.
In test [9] the target is Casein kinase I isoform gamma-3 (Homo sapiens) (UniProt Q9Y6M4). As to the kind of experiment: Inhibition of CK1-gamma3 (unknown origin) at 1 uM by mobility shift microfluidics platform based assay relative to control.
The target in test [10] is Serine/threonine-protein kinase SIK1 (Homo sapiens) (UniProt P57059). Briefly: Inhibition of SIK (unknown origin) at 1 uM by mobility shift microfluidics platform based assay relative to control.
Test [11] has as its target Dual specificity protein kinase CLK3 (Homo sapiens) (UniProt P49761). Briefly: Inhibition of CLK3 (unknown origin) at 1 uM by mobility shift microfluidics platform based assay relative to control.
Test [12] has as its target Mitogen-activated protein kinase 3 (Homo sapiens) (UniProt P27361). As to the kind of experiment: Inhibition of MAPK3 (unknown origin) at 1 uM by mobility shift microfluidics platform based assay relative to control.
Test [13] addresses Ribosomal protein S6 kinase alpha-2 (Homo sapiens) (UniProt Q15349). Briefly: Inhibition of RSK3 (unknown origin) at 1 uM by mobility shift microfluidics platform based assay relative to control.
For test [14], the target named is Mitogen-activated protein kinase 8 (Homo sapiens) (UniProt P45983). Briefly: Inhibition of JNK1 (unknown origin) at 1 uM by mobility shift microfluidics platform based assay relative to control.
For test [15], the target named is Cyclin-dependent kinase 1 (Homo sapiens) (UniProt P06493). Briefly: Inhibition of CDK1 (unknown origin) at 1 uM by mobility shift microfluidics platform based assay relative to control.
For test [16], the target named is 3-phosphoinositide-dependent protein kinase 1 (Homo sapiens) (UniProt O15530). Briefly: Inhibition of PDK1 (unknown origin) at 1 uM by mobility shift microfluidics platform based assay relative to control.
Test [17] deals with Calcium/calmodulin-dependent protein kinase type 1D (Homo sapiens) (UniProt Q8IU85). Briefly: Inhibition of CAMK1D (unknown origin) at 1 uM by mobility shift microfluidics platform based assay relative to control.
The target of test [18] is Ribosomal protein S6 kinase alpha-5 (Homo sapiens) (UniProt O75582). As to the kind of experiment: Inhibition of MSK1 (unknown origin) at 1 uM by mobility shift microfluidics platform based assay relative to control.
Test [19] addresses T1, Tyrosine-protein kinase ABL1 (Homo sapiens, UniProt P00519). Briefly: Inhibition of ABL (unknown origin) by phosphocellulose paper disk assay.
Test [20] concerns the target T1, Tyrosine-protein kinase ABL1. Briefly: Inhibition of ABL (unknown origin) at 30 nM by phosphocellulose paper disk assay.

Cyclin-dependent kinase 1 (Homo sapiens), sequence (P06493 whole entry, looked up): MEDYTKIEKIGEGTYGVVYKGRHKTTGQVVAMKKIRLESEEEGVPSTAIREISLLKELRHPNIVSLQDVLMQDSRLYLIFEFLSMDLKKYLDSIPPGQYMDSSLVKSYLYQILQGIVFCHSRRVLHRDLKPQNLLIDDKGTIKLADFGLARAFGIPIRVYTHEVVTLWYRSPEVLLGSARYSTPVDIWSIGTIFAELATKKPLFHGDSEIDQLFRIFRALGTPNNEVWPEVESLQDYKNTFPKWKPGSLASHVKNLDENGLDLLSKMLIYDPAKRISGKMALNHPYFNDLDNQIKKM
Mitogen-activated protein kinase 3 (Homo sapiens), sequence (P27361 whole entry): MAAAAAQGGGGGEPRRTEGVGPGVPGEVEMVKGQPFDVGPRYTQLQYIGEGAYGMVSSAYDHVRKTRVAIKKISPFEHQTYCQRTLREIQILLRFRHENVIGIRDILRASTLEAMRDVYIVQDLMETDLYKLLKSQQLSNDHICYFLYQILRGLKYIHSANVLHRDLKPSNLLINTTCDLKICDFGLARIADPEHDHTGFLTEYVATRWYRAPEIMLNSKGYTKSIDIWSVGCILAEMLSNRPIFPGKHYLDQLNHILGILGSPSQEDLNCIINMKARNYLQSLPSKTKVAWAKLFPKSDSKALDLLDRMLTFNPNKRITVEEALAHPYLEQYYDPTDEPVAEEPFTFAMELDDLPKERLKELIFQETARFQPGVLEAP
Ribosomal protein S6 kinase alpha-2 (Homo sapiens), sequence (Q15349 whole entry): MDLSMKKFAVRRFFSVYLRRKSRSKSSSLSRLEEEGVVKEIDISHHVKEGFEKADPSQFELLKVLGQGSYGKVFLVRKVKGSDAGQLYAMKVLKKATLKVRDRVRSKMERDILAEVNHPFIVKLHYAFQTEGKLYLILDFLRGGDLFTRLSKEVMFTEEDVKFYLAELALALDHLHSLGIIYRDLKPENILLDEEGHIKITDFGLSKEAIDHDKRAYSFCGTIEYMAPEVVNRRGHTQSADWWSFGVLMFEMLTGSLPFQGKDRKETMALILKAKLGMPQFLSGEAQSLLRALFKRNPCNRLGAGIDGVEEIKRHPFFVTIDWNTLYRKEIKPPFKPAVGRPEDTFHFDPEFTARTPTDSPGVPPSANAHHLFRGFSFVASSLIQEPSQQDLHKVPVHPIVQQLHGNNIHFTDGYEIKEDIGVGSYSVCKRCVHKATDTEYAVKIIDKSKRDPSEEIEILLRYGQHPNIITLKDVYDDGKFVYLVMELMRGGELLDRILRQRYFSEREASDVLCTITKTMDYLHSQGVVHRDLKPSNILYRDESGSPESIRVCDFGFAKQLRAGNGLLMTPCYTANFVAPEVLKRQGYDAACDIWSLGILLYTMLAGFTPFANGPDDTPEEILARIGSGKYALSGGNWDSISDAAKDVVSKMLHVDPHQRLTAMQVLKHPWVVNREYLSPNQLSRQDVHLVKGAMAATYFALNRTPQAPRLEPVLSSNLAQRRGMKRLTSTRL
T1 sequence (P00519 whole entry): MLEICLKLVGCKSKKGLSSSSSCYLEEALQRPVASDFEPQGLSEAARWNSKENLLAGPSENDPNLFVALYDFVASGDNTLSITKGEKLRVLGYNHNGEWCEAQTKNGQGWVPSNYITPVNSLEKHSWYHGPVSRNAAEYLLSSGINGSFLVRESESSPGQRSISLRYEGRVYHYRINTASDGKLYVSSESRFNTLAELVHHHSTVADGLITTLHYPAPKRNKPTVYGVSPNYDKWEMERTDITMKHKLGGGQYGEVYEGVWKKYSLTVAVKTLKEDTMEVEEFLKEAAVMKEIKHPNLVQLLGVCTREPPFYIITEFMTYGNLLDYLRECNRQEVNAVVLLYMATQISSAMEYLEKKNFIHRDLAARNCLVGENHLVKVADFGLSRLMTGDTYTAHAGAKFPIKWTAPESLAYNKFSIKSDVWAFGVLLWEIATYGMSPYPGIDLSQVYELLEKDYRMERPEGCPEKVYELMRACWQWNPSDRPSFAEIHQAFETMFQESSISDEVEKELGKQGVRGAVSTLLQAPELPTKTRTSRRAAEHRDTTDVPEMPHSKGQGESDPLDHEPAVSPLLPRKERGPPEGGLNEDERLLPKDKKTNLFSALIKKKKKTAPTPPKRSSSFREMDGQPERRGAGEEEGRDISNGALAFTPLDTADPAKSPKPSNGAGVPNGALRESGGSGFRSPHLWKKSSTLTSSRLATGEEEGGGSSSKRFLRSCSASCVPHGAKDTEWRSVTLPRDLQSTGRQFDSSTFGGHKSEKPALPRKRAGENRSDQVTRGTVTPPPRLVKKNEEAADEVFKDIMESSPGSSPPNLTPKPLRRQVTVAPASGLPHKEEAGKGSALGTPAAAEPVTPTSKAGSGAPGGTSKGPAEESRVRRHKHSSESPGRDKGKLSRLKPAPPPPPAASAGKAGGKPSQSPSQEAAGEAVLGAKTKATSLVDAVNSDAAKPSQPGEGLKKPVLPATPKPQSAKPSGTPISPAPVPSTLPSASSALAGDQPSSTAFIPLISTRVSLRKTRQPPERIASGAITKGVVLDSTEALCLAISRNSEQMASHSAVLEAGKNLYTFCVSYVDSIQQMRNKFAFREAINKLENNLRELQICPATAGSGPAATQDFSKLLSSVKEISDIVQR
Dual specificity protein kinase CLK3 (Homo sapiens), sequence (P49761 whole entry, looked up): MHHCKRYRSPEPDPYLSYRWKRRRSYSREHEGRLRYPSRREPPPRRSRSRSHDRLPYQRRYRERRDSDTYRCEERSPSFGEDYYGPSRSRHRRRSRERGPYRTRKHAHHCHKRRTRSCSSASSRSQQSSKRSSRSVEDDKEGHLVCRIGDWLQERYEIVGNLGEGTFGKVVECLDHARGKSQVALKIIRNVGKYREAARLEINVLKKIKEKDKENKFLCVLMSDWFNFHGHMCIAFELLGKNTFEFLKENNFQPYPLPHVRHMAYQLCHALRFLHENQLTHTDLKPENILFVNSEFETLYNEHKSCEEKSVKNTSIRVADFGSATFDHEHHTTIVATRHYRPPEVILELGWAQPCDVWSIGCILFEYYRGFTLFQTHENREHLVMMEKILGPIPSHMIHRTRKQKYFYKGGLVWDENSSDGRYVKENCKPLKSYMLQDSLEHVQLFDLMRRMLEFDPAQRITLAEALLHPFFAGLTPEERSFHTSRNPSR
Ephrin type-B receptor 3 (Homo sapiens), sequence (P54753 whole entry, the tested form may be a part): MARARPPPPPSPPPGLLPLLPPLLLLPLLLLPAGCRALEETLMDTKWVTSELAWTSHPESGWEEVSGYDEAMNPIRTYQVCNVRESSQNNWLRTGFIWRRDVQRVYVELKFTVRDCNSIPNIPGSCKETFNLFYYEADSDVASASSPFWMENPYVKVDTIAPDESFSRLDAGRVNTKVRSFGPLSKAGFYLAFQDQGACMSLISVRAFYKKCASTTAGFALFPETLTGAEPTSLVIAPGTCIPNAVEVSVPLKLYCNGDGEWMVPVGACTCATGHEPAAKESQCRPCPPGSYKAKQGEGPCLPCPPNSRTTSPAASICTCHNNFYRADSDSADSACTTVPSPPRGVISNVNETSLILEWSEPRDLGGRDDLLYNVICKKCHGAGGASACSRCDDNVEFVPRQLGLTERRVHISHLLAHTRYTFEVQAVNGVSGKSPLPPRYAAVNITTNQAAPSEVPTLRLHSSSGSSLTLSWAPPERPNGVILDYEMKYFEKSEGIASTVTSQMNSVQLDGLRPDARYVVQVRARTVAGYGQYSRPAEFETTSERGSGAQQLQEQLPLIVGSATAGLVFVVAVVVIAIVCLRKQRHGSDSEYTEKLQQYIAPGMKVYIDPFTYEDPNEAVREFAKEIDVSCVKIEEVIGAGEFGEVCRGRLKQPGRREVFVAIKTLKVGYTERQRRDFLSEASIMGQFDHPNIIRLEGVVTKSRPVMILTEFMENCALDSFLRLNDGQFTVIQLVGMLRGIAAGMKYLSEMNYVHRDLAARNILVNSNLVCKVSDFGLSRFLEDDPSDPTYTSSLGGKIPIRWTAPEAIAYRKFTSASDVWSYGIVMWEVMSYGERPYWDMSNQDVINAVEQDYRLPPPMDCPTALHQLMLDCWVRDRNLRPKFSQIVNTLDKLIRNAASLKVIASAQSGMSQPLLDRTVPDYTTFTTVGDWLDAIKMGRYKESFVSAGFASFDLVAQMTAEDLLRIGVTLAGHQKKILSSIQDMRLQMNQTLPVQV
3-phosphoinositide-dependent protein kinase 1 (Homo sapiens), sequence (O15530 whole entry): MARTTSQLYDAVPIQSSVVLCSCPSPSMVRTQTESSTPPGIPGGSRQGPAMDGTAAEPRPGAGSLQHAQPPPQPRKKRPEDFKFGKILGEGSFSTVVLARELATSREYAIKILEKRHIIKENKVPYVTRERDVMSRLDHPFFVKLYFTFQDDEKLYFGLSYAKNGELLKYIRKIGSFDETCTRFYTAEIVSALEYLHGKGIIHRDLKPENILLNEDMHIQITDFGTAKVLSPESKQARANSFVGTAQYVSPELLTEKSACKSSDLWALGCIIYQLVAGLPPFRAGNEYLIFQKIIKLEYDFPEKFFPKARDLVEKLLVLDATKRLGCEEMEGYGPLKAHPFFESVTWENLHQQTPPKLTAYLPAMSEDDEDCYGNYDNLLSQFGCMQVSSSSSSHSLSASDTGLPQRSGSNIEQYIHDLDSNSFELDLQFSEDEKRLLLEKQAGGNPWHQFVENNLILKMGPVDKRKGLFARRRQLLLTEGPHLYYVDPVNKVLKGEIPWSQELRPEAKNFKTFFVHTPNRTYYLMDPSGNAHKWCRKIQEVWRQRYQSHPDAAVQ
Calcium/calmodulin-dependent protein kinase type 1D (Homo sapiens), sequence (Q8IU85 whole entry, looked up): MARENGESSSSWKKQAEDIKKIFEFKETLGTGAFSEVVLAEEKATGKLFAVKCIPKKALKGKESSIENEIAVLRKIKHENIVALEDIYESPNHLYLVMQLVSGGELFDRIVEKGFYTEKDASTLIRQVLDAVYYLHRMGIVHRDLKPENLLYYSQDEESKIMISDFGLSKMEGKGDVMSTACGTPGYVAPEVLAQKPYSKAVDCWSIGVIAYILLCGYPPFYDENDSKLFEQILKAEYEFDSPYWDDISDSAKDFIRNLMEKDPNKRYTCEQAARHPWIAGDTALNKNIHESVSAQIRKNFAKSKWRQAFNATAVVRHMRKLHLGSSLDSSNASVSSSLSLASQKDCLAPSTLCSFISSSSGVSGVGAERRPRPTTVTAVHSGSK

Usually inhibition stands for the relative decrease from the control value, in per cent. Usually pIC50 stands for the IC50 on a negative log10 scale, so that one unit is a factor of ten. For the compound `CC(C)n1nc(C#Cc2cccc(NC(=O)c3cccc(C(F)(F)F)c3)c2)c2c(N)ncnc21`, the inhibition was 98% in test [1]; 33% in test [3]; 43% in test [4]; 2% in test [5]; 97% in test [6]; -3% in test [7]. Further, the inhibition in test [8] was 2%; in test [9], 2%; in [10], 43%; in test [11], -1%; in test [12], 1%; in test [13], 10%. Further, the inhibition was -9% in test [14], 6% in test [15], 4% in test [16] and 7% in [17]. Moreover, in test [2], the pIC50 is 8.12.

Regarding `CC(C)n1nc(C#Cc2cccc3cc(-c4cccc(C(F)(F)F)c4)ncc23)c2c(N)ncnc21`, the inhibition is 86% in test [1]; -3% in test [3]; 13% in [4]; -1% in test [5]; -3% in [6]; 2% in test [7]. Besides, the inhibition in test [8] came to 3%; in [18], 5%; in test [10] it was 7%; in test [11], 6%; in test [12], 1%; in [13], 2%. Moreover, the inhibition in test [14] worked out at 2%; in [15], 0%; in test [16] it was 5%; in test [17] it was 10%. Further, the pIC50 in test [19] was 8.52. Besides, the inhibition result in test [20] was “inactive”.
